Data as given in patent US6919375B1, “Sulfonated amino acid derivatives and metalloproteinase inhibitors containing the same” (Shionogi & Co., Ltd., priority 1996, dated 2005).

Molecular target: T1, Type IV collagenase (MMP-9) (Homo sapiens, UniProt P14780)
T1 construct: made in house; host or cells: endogenous secretion by TPA-stimulated human fibrosarcoma HT 1080 cells; purified from conditioned medium
Test: Type IV collagenase (MMP-9) inhibition assay, fluorescent substrate kit
Format: biochemical
Conditions: activated MMP-9 from HT 1080 cells; type IV collagenase activity kit, fluorescent intensity
Experimental: (1) Isolation and Purification of MMP-9 (92 kDa, Gelatinase B)
Type IV collagenase (MMP-9) was purified according to the methods descrived in the following literature.
Subsequently, activated MMP-9 was obtained by treating the pro-MMP-9 with trypsin.
(2) Assay Methods of Type IV Collagenase Inhibitors
Collagenase assay was performed using the activated MMP-9 described above and the substrate supplied in the type IV collagenase activity kit (YAGAI, inc.), according to the manufacturer's protocol. The following 4 assays are performed per compound (inhibitor). • (A) substrate ([…]), enzyme (MMP-9), inhibitor • (B) substrate ([…]), inhibitor • (C) substrate ([…]), enzyme (MMP-9) • (D) substrate ([…])
According to the manufacturer's protocol, fluorescent intensity was measured and percent inhibition was determined by the following equation. Inhibition (%)={1−(A−B)/(C−D;)}×100

T1 sequence (P14780 107-707 limits assumed): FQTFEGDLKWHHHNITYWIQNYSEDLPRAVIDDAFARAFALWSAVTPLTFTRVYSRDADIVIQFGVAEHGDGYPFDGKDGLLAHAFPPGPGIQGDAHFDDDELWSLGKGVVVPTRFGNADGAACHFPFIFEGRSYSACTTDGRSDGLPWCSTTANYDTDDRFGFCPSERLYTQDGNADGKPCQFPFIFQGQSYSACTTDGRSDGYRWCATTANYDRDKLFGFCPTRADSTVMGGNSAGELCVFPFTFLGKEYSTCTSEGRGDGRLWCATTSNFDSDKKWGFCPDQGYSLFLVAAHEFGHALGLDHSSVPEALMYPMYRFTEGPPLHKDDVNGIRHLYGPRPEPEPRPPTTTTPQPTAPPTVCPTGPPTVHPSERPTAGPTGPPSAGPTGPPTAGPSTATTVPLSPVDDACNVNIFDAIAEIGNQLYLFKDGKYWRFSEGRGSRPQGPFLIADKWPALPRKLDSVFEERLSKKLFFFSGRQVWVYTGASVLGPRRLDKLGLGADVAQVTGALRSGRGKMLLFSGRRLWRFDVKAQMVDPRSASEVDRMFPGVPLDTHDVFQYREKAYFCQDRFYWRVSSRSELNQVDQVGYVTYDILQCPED

Row | Structure (SMILES) | IC50 [µM]
1 | O=C(O)[C@@H](Cc1ccccc1)NS(=O)(=O)c1ccc(-c2nnn(-c3ccccc3)n2)cc1 [Example 1a-5-3] | 0.21
2 | O=C(NO)C(Cc1nc2ccccc2[nH]1)NS(=O)(=O)c1ccc(-c2ccccc2)cc1 (racemic) [Example 1b.1-35] | 0.0216
3 | O=C(NO)[C@@H](Cc1ccccc1)NS(=O)(=O)c1ccc(-c2nnn(-c3ccccc3)n2)cc1 [Example 1b-211] | 0.00565
